In patent US8192962B2, “Processes for detecting toxic substances” (Daikin Industries, Ltd., priority 2001, dated 2012):

System: Energy system protein genes
Experiment: DNA chip mRNA expression in yeast, energy system protein genes (Table 4)
Format: cell-based, Saccharomyces cerevisiae S288C
Method in brief: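 Measured as treated-to-untreated fluorescence ratio on a full-genome yeast DNA chip. Cells (S288C, YPD, 25° C.) were exposed in log phase for two hours to one chemical, dosed to curb growth without killing.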

Oc1cc(Cl)c(Cl)cc1Cl [(6), 2,4,5-trichlorophenol]
The level of expressed mRNA in the presence of chemical substance/The level of expressed mRNA in the absence of chemical substance (yeast gene YAL060W): 4.2 | The level of expressed mRNA in the presence of chemical substance/The level of expressed mRNA in the absence of chemical substance (yeast gene YBL058W, cells incubated two hours with the chemical substance): 0.9 | The level of expressed mRNA in the presence of chemical substance/The level of expressed mRNA in the absence of chemical substance (yeast gene YBL099W, cells incubated two hours with the chemical substance): 0.9 | The level of expressed mRNA in the presence of chemical substance/The level of expressed mRNA in the absence of chemical substance (yeast gene YBR001C, cells incubated two hours with the chemical substance): 1.1 | The level of expressed mRNA in the presence of chemical substance/The level of expressed mRNA in the absence of chemical substance (yeast gene YBR126C): 2.9 | The level of expressed mRNA in the presence of chemical substance/The level of expressed mRNA in the absence of chemical substance (yeast gene YBR185C, cells incubated two hours with the chemical substance): 1.2 | The level of expressed mRNA in the presence of chemical substance/The level of expressed mRNA in the absence of chemical substance (yeast gene YBR221C, cells incubated two hours with the chemical substance): 1.7 | The level of expressed mRNA in the presence of chemical substance/The level of expressed mRNA in the absence of chemical substance (yeast gene YCL040W): 3.5 | The level of expressed mRNA in the presence of chemical substance/The level of expressed mRNA in the absence of chemical substance (yeast gene YCR012W): 2.5 | The level of expressed mRNA in the presence of chemical substance/The level of expressed mRNA in the absence of chemical substance (yeast gene YCR046C, cells incubated two hours with the chemical substance): 0.8 | The level of expressed mRNA in the presence of chemical substance/The level of expressed mRNA in the absence of chemical substance (yeast gene YCR105W, cells incubated two hours with the chemical substance): 1.0 | The level of expressed mRNA in the presence of chemical substance/The level of expressed mRNA in the absence of chemical substance (yeast gene YDL021W): 6.5 | The level of expressed mRNA in the presence of chemical substance/The level of expressed mRNA in the absence of chemical substance (yeast gene YDL067C, cells incubated two hours with the chemical substance): 0.9 | The level of expressed mRNA in the presence of chemical substance/The level of expressed mRNA in the absence of chemical substance (yeast gene YDL078C, cells incubated two hours with the chemical substance): 1.1 | The level of expressed mRNA in the presence of chemical substance/The level of expressed mRNA in the absence of chemical substance (yeast gene YDL107W, cells incubated two hours with the chemical substance): 1.3 | The level of expressed mRNA in the presence of chemical substance/The level of expressed mRNA in the absence of chemical substance (yeast gene YDL174C): 1.7 | The level of expressed mRNA in the presence of chemical substance/The level of expressed mRNA in the absence of chemical substance (yeast gene YDL181W, cells incubated two hours with the chemical substance): 1.2 | The level of expressed mRNA in the presence of chemical substance/The level of expressed mRNA in the absence of chemical substance (yeast gene YDR001C): 2.2 | The level of expressed mRNA in the presence of chemical substance/The level of expressed mRNA in the absence of chemical substance (yeast gene YDR050C, cells incubated two hours with the chemical substance): 1.7 | The level of expressed mRNA in the presence of chemical substance/The level of expressed mRNA in the absence of chemical substance (yeast gene YDR079W, cells incubated two hours with the chemical substance): 1.7 | The level of expressed mRNA in the presence of chemical substance/The level of expressed mRNA in the absence of chemical substance (yeast gene YDR178W, cells incubated two hours with the chemical substance): 2.1 | The level of expressed mRNA in the presence of chemical substance/The level of expressed mRNA in the absence of chemical substance (yeast gene YDR231C): 2.2 | The level of expressed mRNA in the presence of chemical substance/The level of expressed mRNA in the absence of chemical substance (yeast gene YDR298C, cells incubated two hours with the chemical substance): 1.2 | The level of expressed mRNA in the presence of chemical substance/The level of expressed mRNA in the absence of chemical substance (yeast gene YDR377W, cells incubated two hours with the chemical substance): 1.3 | The level of expressed mRNA in the presence of chemical substance/The level of expressed mRNA in the absence of chemical substance (yeast gene YDR529C, cells incubated two hours with the chemical substance): 0.8 | The level of expressed mRNA in the presence of chemical substance/The level of expressed mRNA in the absence of chemical substance (yeast gene YEL024W, cells incubated two hours with the chemical substance): 1.1 | The level of expressed mRNA in the presence of chemical substance/The level of expressed mRNA in the absence of chemical substance (yeast gene YEL039C, cells incubated two hours with the chemical substance): 1.5 | The level of expressed mRNA in the presence of chemical substance/The level of expressed mRNA in the absence of chemical substance (yeast gene YER178W): 2.5 | The level of expressed mRNA in the presence of chemical substance/The level of expressed mRNA in the absence of chemical substance (yeast gene YFL057C): 1.2 | The level of expressed mRNA in the presence of chemical substance/The level of expressed mRNA in the absence of chemical substance (yeast gene YFR015C): 3.0 | The level of expressed mRNA in the presence of chemical substance/The level of expressed mRNA in the absence of chemical substance (yeast gene YFR053C): 3.2 | The level of expressed mRNA in the presence of chemical substance/The level of expressed mRNA in the absence of chemical substance (yeast gene YGL018C, cells incubated two hours with the chemical substance): 0.4 | The level of expressed mRNA in the presence of chemical substance/The level of expressed mRNA in the absence of chemical substance (yeast gene YGL062W): 1.0 | The level of expressed mRNA in the presence of chemical substance/The level of expressed mRNA in the absence of chemical substance (yeast gene YGL187C, cells incubated two hours with the chemical substance): 1.1 | The level of expressed mRNA in the presence of chemical substance/The level of expressed mRNA in the absence of chemical substance (yeast gene YGL191W, cells incubated two hours with the chemical substance): 1.6 | The level of expressed mRNA in the presence of chemical substance/The level of expressed mRNA in the absence of chemical substance (yeast gene YGL205W, cells incubated two hours with the chemical substance): 1.6 | The level of expressed mRNA in the presence of chemical substance/The level of expressed mRNA in the absence of chemical substance (yeast gene YGL256W, cells incubated two hours with the chemical substance): 0.7 | The level of expressed mRNA in the presence of chemical substance/The level of expressed mRNA in the absence of chemical substance (yeast gene YGR008C): 2.9 | The level of expressed mRNA in the presence of chemical substance/The level of expressed mRNA in the absence of chemical substance (yeast gene YGR043C): 16.3 | The level of expressed mRNA in the presence of chemical substance/The level of expressed mRNA in the absence of chemical substance (yeast gene YGR062C, cells incubated two hours with the chemical substance, 25° C., YPD medium): 0.9 | The level of expressed mRNA in the presence of chemical substance/The level of expressed mRNA in the absence of chemical substance (yeast gene YGR087C, cells incubated two hours with the chemical substance): 1.1 | The level of expressed mRNA in the presence of chemical substance/The level of expressed mRNA in the absence of chemical substance (yeast gene YGR174C, cells incubated two hours with the chemical substance): 1.4 | The level of expressed mRNA in the presence of chemical substance/The level of expressed mRNA in the absence of chemical substance (yeast gene YGR192C): 1.7 | The level of expressed mRNA in the presence of chemical substance/The level of expressed mRNA in the absence of chemical substance (yeast gene YGR207C): 2.8 | The level of expressed mRNA in the presence of chemical substance/The level of expressed mRNA in the absence of chemical substance (yeast gene YGR244C): 2.6 | The level of expressed mRNA in the presence of chemical substance/The level of expressed mRNA in the absence of chemical substance (yeast gene YGR254W): 1.9 | The level of expressed mRNA in the presence of chemical substance/The level of expressed mRNA in the absence of chemical substance (yeast gene YGR256W): 6.2 | The level of expressed mRNA in the presence of chemical substance/The level of expressed mRNA in the absence of chemical substance (yeast gene YHL008C): 0.8 | The level of expressed mRNA in the presence of chemical substance/The level of expressed mRNA in the absence of chemical substance (yeast gene YHR174W): 1.5 | The level of expressed mRNA in the presence of chemical substance/The level of expressed mRNA in the absence of chemical substance (yeast gene YHR179W): 3.7 | The level of expressed mRNA in the presence of chemical substance/The level of expressed mRNA in the absence of chemical substance (yeast gene YIL045W): 1.7 | The level of expressed mRNA in the presence of chemical substance/The level of expressed mRNA in the absence of chemical substance (yeast gene YIL111W): 2.6 | The level of expressed mRNA in the presence of chemical substance/The level of expressed mRNA in the absence of chemical substance (yeast gene YIL160C): 1.6 | The level of expressed mRNA in the presence of chemical substance/The level of expressed mRNA in the absence of chemical substance (yeast gene YIR031C, cells incubated two hours with the chemical substance): 1.7 | The level of expressed mRNA in the presence of chemical substance/The level of expressed mRNA in the absence of chemical substance (yeast gene YJL052W): 2.4 | The level of expressed mRNA in the presence of chemical substance/The level of expressed mRNA in the absence of chemical substance (yeast gene YJL121C, cells incubated two hours with the chemical substance): 1.1 | The level of expressed mRNA in the presence of chemical substance/The level of expressed mRNA in the absence of chemical substance (yeast gene YJL166W, cells incubated two hours with the chemical substance): 0.7 | The level of expressed mRNA in the presence of chemical substance/The level of expressed mRNA in the absence of chemical substance (yeast gene YJR009C): 1.6
